Assay results taken from the supplement of paper PMC10307832.

Experiments:
Test in all cases: relative viability (nuclei count vs DMSO), 5 days (fraction); higher = more cells survive
Linsitinib + Foretinib = compound: C[C@]1(O)C[C@@H](c2nc(-c3ccc4ccc(-c5ccccc5)nc4c3)c3c(N)nccn32)C1 [Linsitinib] + COc1cc2c(Oc3ccc(NC(=O)C4(C(=O)Nc5ccc(F)cc5)CC4)cc3F)ccnc2cc1OCCCN1CCOCC1 [Foretinib] (partner 0.25 µM)
Method in brief: (§1)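 The day after seeding in 1536-well plates, lung cancer cell lines were treated by pin tool with a single drug, or with a fixed anchor-drug dose together with five library-drug doses (not always all listed) in √10 steps. After 5 days, a combined fix-and-stain solution (final 0.05% Triton X-100, 1% formaldehyde, 1 ug/ml Hoechst) was added. Nuclei counted on 4× images gave relative viability as treated counts over vehicle counts, reported as the median of duplicate plates.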

Linsitinib + Phenformin = compound: C[C@]1(O)C[C@@H](c2nc(-c3ccc4ccc(-c5ccccc5)nc4c3)c3c(N)nccn32)C1 [Linsitinib] + N=C(N)NC(=N)NCCc1ccccc1 [Phenformin] (partner 250 µM)
Method in brief: as §1

Linsitinib + Lapatinib = compound: C[C@]1(O)C[C@@H](c2nc(-c3ccc4ccc(-c5ccccc5)nc4c3)c3c(N)nccn32)C1 [Linsitinib] + CS(=O)(=O)CCNCc1ccc(-c2ccc3ncnc(Nc4ccc(OCc5cccc(F)c5)c(Cl)c4)c3c2)o1 [Lapatinib] (partner 2 µM)
Method in brief: as §1

Linsitinib + Trametinib = compound: C[C@]1(O)C[C@@H](c2nc(-c3ccc4ccc(-c5ccccc5)nc4c3)c3c(N)nccn32)C1 [Linsitinib] + CC(=O)Nc1cccc(-n2c(=O)n(C3CC3)c(=O)c3c(Nc4ccc(I)cc4F)n(C)c(=O)c(C)c32)c1 [Trametinib] (partner 0.02 µM)
Method in brief: as §1

**Q.** What does the source list for UMC-11?
**A.** relative viability (Linsitinib + Foretinib; first compound 0.01 µM): 0.976; relative viability (Linsitinib + Foretinib; first compound 0.03162 µM): 0.89; relative viability (Linsitinib + Foretinib; first compound 0.1 µM): 1.03; relative viability (Linsitinib + Foretinib; first compound 1 µM): 1.02; relative viability (Linsitinib + Phenformin; first compound 0.01 µM): 0.332; relative viability (Linsitinib + Phenformin; first compound 0.03162 µM): 0.29; relative viability (Linsitinib + Phenformin; first compound 0.1 µM): 0.343; relative viability (Linsitinib + Phenformin; first compound 1 µM): 0.321; relative viability (Linsitinib + Lapatinib; first compound 0.01 µM): 0.889; relative viability (Linsitinib + Lapatinib; first compound 0.03162 µM): 0.871; relative viability (Linsitinib + Lapatinib; first compound 0.1 µM): 1.08; relative viability (Linsitinib + Lapatinib; first compound 0.3162 µM): 0.303; relative viability (Linsitinib + Lapatinib; first compound 1 µM): 0.843; relative viability (Linsitinib + Trametinib; first compound 0.01 µM): 0.72; relative viability (Linsitinib + Trametinib; first compound 0.03162 µM): 0.76; relative viability (Linsitinib + Trametinib; first compound 0.1 µM): 0.7; relative viability (Linsitinib + Trametinib; first compound 0.3162 µM): 0.211; relative viability (Linsitinib + Trametinib; first compound 1 µM): 0.471
